Where two headings read alike, the source gives them in different places.
Tested on: test plant species
Experiment: Post-emergent herbicidal activity test (greenhouse, foliar spray, visual growth reduction)
Type: in vivo
Conditions: post-emergence, 336 h, 140 g ai/ha
Protocol: Post-emergent Test: Seeds or nutlets of the desired test plant species were planted in Sun Gro Metro-Mix® 360 planting mixture, which typically has a pH of 6.0 to 6.8 and an organic matter content of about 30 percent, in plastic pots with a surface area of 64 square centimeters. In some aspects, to ensure good germination and healthy plants, a fungicide treatment and/or other chemical or physical treatment was applied. The plants were grown for 7-21 d in a greenhouse with an approximate 15 h photoperiod which was maintained at 23-29° C. during the day and 22-28° C. during the night. Nutrients and water were added on a regular basis and supplemental lighting was provided with overhead metal halide 1000-Watt lamps as necessary. Plants were used for testing when they reached the first or second true leaf stage. A weighed amount, determined by the highest rate to be tested, of each test compound was placed in a 25 mL glass vial and was dissolved in 4 mL of a 97:3 v/v mixture of acetone and DMSO to obtain concentrated stock solutions. […] The concentrated stock solutions obtained were diluted with 20 mL of an aqueous mixture containing acetone, water, isopropyl alcohol, DMSO, […] crop oil concentrate, and X-77 surfactant in a 48.5:39:10:1.5:1.0:0.02 v/v ratio to obtain spray solutions containing the application rate. Compound requirements are based upon a 12 mL application volume at a rate of 187 liters per hectare (L/ha). Formulated compounds were applied to the plant material with an overhead Mandel track sprayer equipped with […] nozzles calibrated to deliver 187 L/ha over an application area of 0.64 square meters at a spray height of 18 inches (43 cm) above the average plant canopy height. Control plants were sprayed in the same manner with the solvent blank. The treated plants and control plants were placed in a greenhouse as described above and watered by subirrigation to prevent wash-off of the test compounds. After 14 d, the condition of the test plants as compared with that of the nontreated and control plants was determined visually and scored on a scale of 0 to 100 percent where 0 corresponds to no injury and 100 corresponds to complete control. In the reporting of the results, Table A: Percent Growth Reduction Conversion Table was used.

[1] = ALOMY: blackgrass (Alopecurus myosuroides), 14 days after application, read-out: Visual Growth Reduction (%) 14 Days After Application, ALOMY
[2] = AMARE: redroot pigweed (Amaranthus retroflexus), 14 days after application, read-out: Visual Growth Reduction (%) 14 Days After Application, AMARE
[3] = AVEFA: wild oat (Avena fatua), 14 days after application, read-out: Visual Growth Reduction (%) 14 Days After Application, AVEFA
[4] = CHEAL: lambsquarters (Chenopodium album), 14 days after application, read-out: Visual Growth Reduction (%) 14 Days After Application, CHEAL
[5] = CIRAR: canada thistle (Cirsium arvense), 14 days after application, read-out: Visual Growth Reduction (%) 14 Days After Application, CIRAR
[6] = CYPES: yellow nutsedge (Cyperus esculentus), 14 days after application, read-out: Visual Growth Reduction (%) 14 Days After Application, CYPES
[7] = DIGSA: crabgrass (Digitaria sanguinalis), 14 days after application, read-out: Visual Growth Reduction (%) 14 Days After Application, DIGSA
[8] = ECHCG: barnyardgrass (Echinochloa crus-galli), 14 days after application, read-out: Visual Growth Reduction (%) 14 Days After Application, ECHCG
[9] = IPOHE: ivy-leaf morning glory (Ipomoea hederacea), 14 days after application, read-out: Visual Growth Reduction (%) 14 Days After Application, IPOHE
[10] = KCHSC: kochia (Bassia scoparia), 14 days after application, read-out: Visual Growth Reduction (%) 14 Days After Application, KCHSC
[11] = ORYSA: rice (Oryza sativa), 14 days after application, read-out: Visual Growth Reduction (%) 14 Days After Application, ORYSA
[12] = SETFA: giant foxtail (Setaria faberi), 14 days after application, read-out: Visual Growth Reduction (%) 14 Days After Application, SETFA
[13] = SORVU: grain sorghum (Sorghum vulgare), 14 days after application, read-out: Visual Growth Reduction (%) 14 Days After Application, SORVU
[14] = STEME: common chickweed (Stellaria media), 14 days after application, read-out: Visual Growth Reduction (%) 14 Days After Application, STEME
[15] = TRZAS: wheat, spring (Triticum aestivum), 14 days after application, read-out: Visual Growth Reduction (%) 14 Days After Application, TRZAS
[16] = blackgrass (Alopecurus myosuroides), 14 Days After Application, read-out: Visual Growth Reduction (%) ALOMY
[17] = crabgrass (Digitaria sanguinalis), 14 Days After Application, read-out: Visual Growth Reduction (%) DIGSA
[18] = lambsquarters (Chenopodium album), 14 Days After Application, read-out: Visual Growth Reduction (%) CHEAL
[19] = redroot pigweed (Amaranthus retroflexus), 14 Days After Application, read-out: Visual Growth Reduction (%) AMARE
[20] = wild oat (Avena fatua), 14 Days After Application, read-out: Visual Growth Reduction (%) AVEFA
[21] = yellow nutsedge (Cyperus esculentus), 14 Days After Application, read-out: Visual Growth Reduction (%) CYPES
[22] = canada thistle (Cirsium arvense), 14 Days After Application, read-out: Visual Growth Reduction (%) CIRAR

| SMILES | pest or weed control at 140 g/ha [1] | pest or weed control at 140 g/ha [2] | pest or weed control at 140 g/ha [3] | pest or weed control at 140 g/ha [4] | pest or weed control at 140 g/ha [5] | pest or weed control at 140 g/ha [6] | pest or weed control at 140 g/ha [8] | pest or weed control at 140 g/ha [9] | pest or weed control at 140 g/ha [10] | pest or weed control at 140 g/ha [11] | pest or weed control at 140 g/ha [12] | pest or weed control at 140 g/ha [13] | pest or weed control at 140 g/ha [14] | pest or weed control at 140 g/ha [15] | pest or weed control at 140 g/ha [16] | pest or weed control at 140 g/ha [17] | pest or weed control at 140 g/ha [18] | pest or weed control at 140 g/ha [19] | pest or weed control at 140 g/ha [20] | pest or weed control at 140 g/ha [21] | other results |
| --- | --- | --- | --- | --- | --- | --- | --- | --- | --- | --- | --- | --- | --- | --- | --- | --- | --- | --- | --- | --- | --- |
| COC(=O)c1nc(-c2ccc(C3CC3)cc2Cl)ccc1Cl [F15, methyl 3-chloro-6-(2-chloro-4-cyclopropylphenyl)picolinate] | 0 to 29% | 30 to 44% | 0 to 29% | 45 to 59% | 0 to 29% | 30 to 44% | – | – | – | – | – | – | – | – | – | – | – | – | – | – | pest or weed control at 140 g/ha [7]: 0 to 29%; pest or weed control at 140 g/ha (barnyardgrass (Echinochloa crus-galli), 14 Days After Application, read-out: Visual Growth Reduction (%) ECHCG): 0 to 29%; pest or weed control at 140 g/ha (common chickweed (Stellaria media), 14 Days After Application, read-out: Visual Growth Reduction (%) STEME): 0 to 29%; pest or weed control at 140 g/ha (giant foxtail (Setaria faberi), 14 Days After Application, read-out: Visual Growth Reduction (%) SETFA): 0 to 29%; pest or weed control at 140 g/ha (ivy-leaf morning glory (Ipomoea hederacea), 14 Days After Application, read-out: Visual Growth Reduction (%) IPOHE): 95 to 100%; pest or weed control at 140 g/ha (johnsongrass (Sorghum vulgare), 14 Days After Application, read-out: Visual Growth Reduction (%) SORVU): 0 to 29%; pest or weed control at 140 g/ha (kochia (Bassia scoparia), 14 Days After Application, read-out: Visual Growth Reduction (%) KCHSC): 0 to 29%; pest or weed control at 140 g/ha (rice (Oryza sativa), 14 Days After Application, read-out: Visual Growth Reduction (%) ORYSA): 0 to 29%; pest or weed control at 140 g/ha (wheat, spring (Triticum aestivum), 14 Days After Application, read-out: Visual Growth Reduction (%) TRZAS): 0 to 29% |
| COC(=O)c1nc(-c2cc3c(cc2OC)OC(F)(F)O3)c(F)cc1Cl [F333, Methyl 3-chloro-6-(2,2-difluoro-6-methoxybenzo[d][1,3]dioxol-5-yl)-5-fluoropicolinate] | – | – | – | – | – | – | 30 to 44% | 95 to 100% | 30 to 44% | 0 to 29% | 30 to 44% | 85 to 94% | 0 to 29% | 45 to 59% | 0 to 29% | 60 to 74% | 0 to 29% | 30 to 44% | 0 to 29% | 0 to 29% | – |
| COC(=O)c1nc(-c2ccc(C(F)(F)F)cc2OC)ncc1Cl [F313, methyl 5-chloro-2-(2-methoxy-4-(trifluoromethyl)phenyl)pyrimidine-4-carboxylate] | – | – | – | – | – | – | 60 to 74% | 95 to 100% | 0 to 29% | 0 to 29% | 60 to 74% | 85 to 94% | 0 to 29% | 0 to 29% | 0 to 29% | 75 to 84% | 30 to 44% | 45 to 59% | 0 to 29% | 0 to 29% | pest or weed control at 140 g/ha [22]: 45 to 59% |
| COC(=O)c1nc(-c2cc3nonc3cc2F)c(F)cc1Cl [F318, Methyl 3-chloro-5-fluoro-6-(6-fluorobenzo[c][1,2,5]oxadiazol-5-yl)picolinate] | – | – | – | – | – | – | 85 to 94% | 95 to 100% | 0 to 29% | 0 to 29% | 75 to 84% | 85 to 94% | 0 to 29% | 0 to 29% | 0 to 29% | 85 to 94% | 60 to 74% | 60 to 74% | 0 to 29% | 0 to 29% | pest or weed control at 140 g/ha [22]: 0 to 29% |
| O=C(O)c1nc(-c2ccc(C(F)(F)F)cc2Cl)ccc1[N+](=O)[O-] [F252, 6-(2-Chloro-4-(trifluoromethyl)phenyl)-3-nitropicolinic acid] | – | – | – | – | – | – | 0 to 29% | 30 to 44% | 0 to 29% | 0 to 29% | 0 to 29% | 45 to 59% | 0 to 29% | 0 to 29% | 0 to 29% | 30 to 44% | 60 to 74% | 0 to 29% | 0 to 29% | 0 to 29% | pest or weed control at 140 g/ha [22]: 0 to 29% |
| COC(=O)c1nc(-c2ccc(Br)cc2Cl)ccc1Cl [F27, Methyl 6-(4-bromo-2-chlorophenyl)-3-chloropicolinate] | 0 to 29% | 60 to 74% | 0 to 29% | 45 to 59% | 75 to 84% | 0 to 29% | 0 to 29% | 85 to 94% | 30 to 44% | 0 to 29% | 0 to 29% | 60 to 74% | 0 to 29% | 0 to 29% | – | – | – | – | – | – | pest or weed control at 140 g/ha [7]: 60 to 74% |
| O=C(OCc1cccc(C(F)(F)F)c1)c1nc(-c2ccc(C(F)(F)F)cc2Cl)ccc1Cl [F117, 3-(Trifluoromethyl) benzyl 3-chloro-6-(2-chloro-4-(trifluoromethyl)phenyl)picolinate] | 45 to 59% | 95 to 100% | 60 to 74% | 95 to 100% | 85 to 94% | 0 to 29% | 85 to 94% | 95 to 100% | 95 to 100% | 0 to 29% | 95 to 100% | 95 to 100% | 0 to 29% | 85 to 94% | – | – | – | – | – | – | pest or weed control at 140 g/ha [7]: 95 to 100% |

From patent US20230017045A1, “PYRIDINE AND PYRIMIDINE CARBOXYLATE HERBICIDES AND METHODS OF USE THEREOF” (Dow AgroSciences LLC, priority 2017, published 2023)
